Data on 73 compounds can be found in PubChem BioAssay AID179 (DTP/NCI, 2004).

For orientation: EC50 means the concentration that produces a half-maximal response. Broadly, the IC50 is the point on the concentration scale where inhibition reaches its midpoint. Low values mean inhibition by little substance, high ones a need for much substance.

Where “and” joins values, the source holds several entries; their conditions need not be identical. Identical values can stand only once. Calls of active or inactive are those of the source.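 How the source made its calls: active means compounds giving half or more protection of infected cells from virus-caused growth loss, again on retest; inactive means the rest.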 Where a SMILES comes first, the peptide text is derived from it. Bridges are numbered along the chain shown (N, C = ends). [ ]: non-standard residue; d: D form. The star is where a group is joined. Cbz = O=C(OCc1ccccc1)*; Dab = NCC[CH](N)C(=O)O; Bn = c1ccc(C*)cc1 A value given as a limit tells only on which side of the number the result lay.

The assay deals with CEM cells HIV-1 protection, formazan growth assay. Nature of the assay: NCI AIDS Antiviral Assay. Conditions: for IC50: measured here: growth of uninfected CEM cells. The essentials:
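Human CEM cells, uninfected and HIV-1-infected, exposed to five drug concentrations; growth measured by soluble formazan assay and scored as percent protection from infection, with protecting compounds retested.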

Regarding `CC(C)CC1NC(=O)C(Cc2ccccc2)NC(=O)C(Cc2ccccc2)NC(=O)C(NC(=O)C(Cc2ccc(OCc3ccccc3)cc2)NC(=O)OCc2ccccc2)CCNC1=O` (configuration not stated) (Cbz-Y(Bn)[Dab]FFL; lactam 2-C; configuration not given here), the EC50 was above 100 µM and the IC50 is above 100 µM.

Take `CS(=O)(=O)OCCN(CCOS(C)(=O)=O)c1ccc(C=O)cc1`: the EC50 was above 200 µM and the IC50 turned out to be 0.479 µM.

On to `O=C1CCC(=O)c2c1c(O)c1ccncc1c2O`, for which the result was inactive.

For the compound `CN(C)c1ccc(S(=O)Nc2ccccc2)cc1` (configuration not stated), the EC50 was above 200 µM and the IC50 came out at 85.1 µM.

For `O=C1CC(C(COCc2ccccc2)OCc2ccccc2)CC(=O)N1` (configuration not stated), the EC50 is above 200 µM and the IC50 was above 200 µM.

For the compound `COC(=O)C(CC(=O)c1c[nH]c2ccccc12)c1c[nH]c2ccccc12` (configuration not stated), the result was inactive.

On to `O=[N+]([O-])c1ccc(N=P(c2ccccc2)(c2ccccc2)c2ccccc2)n2nnnc12`, for which the result was inactive.

On to `Cn1c(=O)c2c3ccccc3c(C(=O)c3ccccc3)n2c2ccccc21`, for which the EC50 was above 51.3 µM and the IC50 was determined as 3.09 µM.

With `CCOCCOCCCNCC(=O)N1CCN(C(=O)CNCCCOCCOCC)CC1`, the outcome was inactive.

On to `Cn1cc(C(=O)c2ccccc2)ccc1=O`, for which the EC50 was above 617 µM and the IC50 turned out to be 479 µM.

Take `C=CCOC1OC(CS(=O)(=O)O)C(O)C(O)C1O` (configuration not stated): the result was inactive.

`C=CC1CC1(CO)COc1cc(Cl)nc(N)n1` (configuration not stated): the EC50 was above 200 µM and the IC50 is 141 µM.

In the case of `O=S1(=O)/C(=C\C2CCCCC2)c2c1c(-c1ccccc1)c1ccccc1c2-c1ccccc1`, the EC50 is above 49 µM and the IC50 was above 49 µM.

Regarding `OC1CCOc2ccccc21` (configuration not stated), the EC50 was above 200 µM and the IC50 is above 200 µM.

Regarding `Cc1csc2c1-n1cccc1C2=O`, the EC50 is above 200 µM and the IC50 came out at 129 µM.

For `COC(=O)c1c2c(cc3c1CC1(Cc4cc5c(cc4C1)CCC5)C3)CCC2`, the EC50 is above 200 µM and the IC50 was above 200 µM.

`COc1ccc2c3c1C(=O)CCCC3CO2` (configuration not stated): the outcome was inactive.

Consider `COCC12CCC(OC)C34C5CC6(O)C(OC)C=C(C5C6OC(=O)c5ccccc5)C(C(OC)C13)C4N(C)C2` (configuration not stated), for which the result was inactive.

As for `CN(C)Cc1cc(CN(C)C)cc(CN(C)C)c1`, the EC50 is above 200 µM and the IC50 is above 200 µM.

As for `COc1ccc(CC2C(=O)NC(=O)NC2=O)cc1OC`, the EC50 was above 200 µM and the IC50 is above 200 µM.

Turning to `O=S(=O)(O)c1ccc(N=Nc2ccc(N=Nc3cccc4ccccc34)c(S(=O)(=O)O)c2)cc1`, the EC50 is above 50.1 µM and the IC50 was above 50.1 µM.

For `c1ccc(N=C(N2CCOCC2)N(CCN2CCOCC2)c2ccccc2)cc1`, the EC50 was above 200 µM and the IC50 stood at 182 µM.

On to `N=C(N)c1ccc2oc3ccc(C(=N)N)cc3c(=O)c2c1`, for which the result was inactive.

Take `CN(C)CCCNC(=O)c1cc(NC(=O)c2cc(NC(=O)c3cc(NC(=O)c4cccc(C(=O)Nc5cc(C(=O)Nc6cc(C(=O)Nc7cc(C(=O)NCCCN(C)C)n(C)c7)n(C)c6)n(C)c5)c4)cn3C)cn2C)cn1C`: the EC50 was above 100 µM and the IC50 is above 100 µM.

As for `[N-]=[N+]=Nc1c([N+](=O)[O-])c(Cl)nc2ccccc12`, the EC50 was above 20 µM and the IC50 came to 10 µM.

For the compound `O=C1C=CC2=[N+]([O-])C(c3ccccc3)(c3ccccc3)C(=Nc3ccccc3)C2=C1`, the outcome was inactive.

As for `COc1ccc(N=Nc2c(-c3ccccc3)nn(C(=O)CC(=O)Nc3ccccc3Cl)c2-c2ccccc2)cc1`, the EC50 was above 24.5 µM and the IC50 stood at 22.9 µM.

As to `CCc1occc(=O)c1O`, the EC50 is above 1780 µM and the IC50 stood at 339 µM.

As for `CN(C)CCNc1ncnc2nc(-c3ccc4ccccc4c3)[nH]c12`, the EC50 is above 200 µM and the IC50 is above 200 µM.

With `c1cc2c(cc1NC1=NCCO1)CCCC2`, the EC50 is above 200 µM and the IC50 was 1.55 µM.

Take `S=c1[nH]nc(Cn2c3ccc(Br)cc3c3nc4ccccc4nc32)o1`: the EC50 is above 200 µM and the IC50 was 49 µM.

`NC(=O)c1ncn2c1CNC(=O)C2`: the EC50 is above 200 µM and the IC50 is above 200 µM.

In the case of `CCOC(=O)c1[nH]c2c(cc(C=O)c3ccccc32)c1C`, the EC50 was above 200 µM and the IC50 turned out to be 60.3 µM.

Take `O=S(Cc1ccccc1)c1ccccc1Cn1cccc1` (configuration not stated): the EC50 was above 200 µM and the IC50 was found to be 158 µM.

Turning to `O=C1C(NS(=O)(=O)c2ccccc2)=C(N(Cc2ccccc2)Cc2ccccc2)C(=O)c2ccccc21`, the EC50 was above 200 µM and the IC50 amounted to 72.4 µM.

On to `O=c1c(SSc2coc3cc(F)ccc3c2=O)coc2cc(F)ccc12`, for which the EC50 was above 200 µM and the IC50 is 2.75 µM.

Consider `O=C(Nc1ccccc1F)c1c(O)nc2sccn2c1=O`, for which the EC50 was above 200 µM and the IC50 was 51.3 µM.

Consider `NN=C(CC(O)(C(F)(F)Cl)C(F)(F)Cl)CC(O)(C(F)(F)Cl)C(F)(F)Cl`, for which the EC50 was above 200 µM and the IC50 was determined as 6.92 µM.

For `c1ccc(COc2ccc3[nH]c4c(ncc5[nH]c6ccccc6c54)c3c2)cc1`, the result was inactive.

Take `COc1cc(-c2nc(N)c(C#N)c3c2CCS(=O)(=O)c2ccc(C)cc2-3)cc(OC)c1OC`: the EC50 was above 200 µM and the IC50 was above 200 µM.

Regarding `CC(=O)c1cc2ccccc2oc1=O`, the EC50 is above 138 µM and the IC50 was above 138 µM.

Consider `COCC(C)(C)N=CN1CCc2cc(OC)c(OC)cc2C1`, for which the EC50 was above 813 µM and the IC50 was above 813 µM.

For the compound `COc1ccc2c(c1)CCC1=C2CCS1(=O)=O`, the EC50 was above 200 µM and the IC50 was above 200 µM.

`COc1ccc(NC(=O)C/C(C)=N\N=C(N)N)c([N+](=O)[O-])c1`: the EC50 is above 115 µM and the IC50 is above 115 µM.

Consider `NC(N)=NC(P(=O)(O)O)P(=O)(O)O`, for which the EC50 is above 200 µM and the IC50 was above 200 µM.

With `Oc1c(NCn2nc(CCCCCCCCc3nn(CNc4ccc5ccccc5c4O)c(=S)o3)oc2=S)ccc2ccccc12`, the EC50 is above 200 µM and the half-inhibitory concentration (IC50) is 35.5 µM.

For `O=[N+]([O-])c1ccc2[nH]c(=S)n(/C=C(/c3ccccc3)S(=O)Cc3ccccc3)c2c1` (configuration not stated), the EC50 was above 200 µM and the IC50 is above 200 µM.

For `CC1=C2CC[C@]2(C)[C@]23OCC(C)(CC2C1=O)C3O` (some centres not stated), the outcome was inactive.

In the case of `COc1ccc(-n2c(N)c(C#N)c(C#N)c2-c2ccccc2)cc1`, the EC50 is above 200 µM and the IC50 was 12 µM.

Regarding `CC1(c2nc3ccccc3[nH]2)CCC(CO)C(C)(C)O1` (configuration not stated), the EC50 is above 200 µM and the IC50 was above 200 µM.

Take `Cc1ccc(S(=O)(=O)N/N=C2\CC(C)OC3=C2CCCCCC3)cc1` (configuration not stated): the EC50 is above 200 µM and the IC50 was 33.9 µM.

With `O=C(c1ccc(OC(=O)c2ccccc2O)cc1)c1ccc(OC(=O)c2ccccc2O)cc1`, the result was inactive.

On to `COc1ccc(-n2c(Cn3nnc(-c4cccnc4)n3)nn(C3OC(COC(=O)c4ccccc4)C(OC(=O)c4ccccc4)C3OC(=O)c3ccccc3)c2=S)cc1` (configuration not stated), for which the EC50 is above 100 µM and the IC50 is above 100 µM.

In the case of `CC(C)=[CH][Sb]([Br])([CH]=C(C)C)([CH]=C(C)C)[c]1ccccc1`, the EC50 was above 562 µM and the IC50 was determined as 6.76 µM.

In the case of `COc1ccc2c(c1)CCC1C[C@@H]3C[C@]21C=CC3=O` (some centres not stated), the EC50 was above 182 µM; the IC50 is 49 µM and > 28.2 µM.

Take `OC(c1ccccc1)c1ccc(C(O)c2ccccc2)cc1` (configuration not stated): the EC50 is above 123 µM and the IC50 is above 123 µM.

In the case of `CCCCCCCCC1=C(OC)C(=O)c2c(C)cc(Cl)nc2C1=O`, the outcome was inactive.

`CC(=O)Nc1sccc1S(=O)(=O)c1ccc(Cl)cc1`: the EC50 was above 200 µM and the IC50 is above 200 µM.

Regarding `COc1cccc(CC2C(=O)N=C(NC(C)=O)N2C)c1OC(C)=O` (configuration not stated), the EC50 is above 200 µM and the IC50 came to 151 µM.

Take `O=C(O)c1c[nH]c2c(ccc3[nH]cc(C(=O)O)c(=O)c32)c1=O`: the EC50 was above 200 µM and the IC50 was above 200 µM.

Consider `O=C(CC(C(=O)c1cccs1)c1ccsc1)c1ccsc1` (configuration not stated), for which the EC50 is above 200 µM and the IC50 was determined as 11.5 µM.

Turning to `O=C(Nc1ccc(O)cc1)C(Cl)(Cl)Cl`, the EC50 was above 200 µM and the IC50 worked out at 39.8 µM.

As for `CC(=O)OC1(C)C=C/C(=N\S(=O)(=O)c2ccc(C)cc2)c2ccccc21` (configuration not stated), the EC50 is above 200 µM and the IC50 turned out to be 9.33 µM.

Consider `CSc1c2c([nH]c(=O)c1C#N)-c1ccccc1CC2`, for which the EC50 is above 200 µM and the IC50 came out at 166 µM.

On to `O=c1oc2c/c(=C\c3ccc([N+](=O)[O-])cc3)c(=O)c3cccc1c3-2`, for which the EC50 is above 200 µM and the IC50 was 30.9 µM.

On to `COC(=O)NC[C@@H]1OCc2cc3c(cc2[C@]12CC=CCC2)OCO3`, for which the EC50 is above 107 µM and the IC50 came out at 6.92 µM.

Regarding `CC1=N[C@](C)(C2CC3C=CC2C3=O)COC1=O` (some centres not stated), the EC50 was above 562 µM and the IC50 is above 562 µM.

Regarding `CC1C[N+]2(CNC(=O)C3=C(O)C4(O)C(=O)C5=C(O)c6c(O)cccc6C(C)(O)C5CC4C(N(C)C)C3=O)CC(C)O[B-]2(c2ccccc2)O1` (configuration not stated), the EC50 is above 138 µM and the IC50 turned out to be 105 µM.

As to `O=C(c1ccc([N+](=O)[O-])cc1)c1no[n+]([O-])c1C(=O)c1ccc([N+](=O)[O-])cc1`, the outcome was inactive.

Turning to `OCC(O)COc1ccc(F)cc1` (configuration not stated), the EC50 was above 1350 µM and the IC50 is above 1350 µM.

Consider `Cc1cc(N)ccc1C=O`, for which the EC50 was above 200 µM and the IC50 is above 200 µM.

For the compound `CN(C)/C=C/c1c2c(nc3ccccc13)C(=O)c1ccccc1C2=O`, the EC50 is above 100 µM and the IC50 worked out at 2.24 µM.

For `N=C(c1ccc(-c2cn3cc(C(=N)N4CCCC4)ccc3n2)cc1)N1CCCC1`, the EC50 is 148 µM and the IC50 is above 200 µM.
